In patent US20260007674A1, “Novel Chemotypes for Treating Parasitic Diseases and Methods of Use” (The Medical College of Wisconsin, Inc., priority 2022, published 2026):
Entries after “also recorded” stand apart in the source; their conditions may differ.

Experiments:
S. mansoni [1] = assay: Electron microscopy of tegument of treated S. mansoni; format: cell-based, Schistosoma mansoni; settings: FIG. 17H, 17I
S. mansoni [2] = assay: Murine model of schistosomiasis, worm burden; format: in vivo, mice; settings: 50 mg/kg intraperitoneal 1× daily for 3 days, FIG. 16; for worm burden: Female Swiss Webster mice, 7 weeks post-infection, recovery four days after first treatment
Description: (§1) All animal experiments followed ethical regulations approved by the MCW IACUC committee. At 7 weeks post-infection, mice were randomly sorted into 4 groups of 13 mice. One group was left untreated as a control. A second group was treated with vehicle (a mixture of DMSO/PEG400/H2O). A third group was treated with praziquantel (50 mg/kg, intraperitoneal, 1× daily) for 3 days in a row. In addition, a fourth group was treated with BZQ/S55 in the same fashion as praziquantel. Four days after the first treatment, the mice were euthanized, and the mesenteric vasculature was dissected in the usual fashion to recover schistosomes. The worm burden from each mouse was individually plotted (FIG. 16). There was no significant difference between untreated mice and mice treated with vehicle, confirming that the vehicle the drugs were dosed in had no effect on worm burden.

F. hepatica = assay: Electron microscopy of tegument of treated F. hepatica; format: cell-based, Fasciola hepatica; settings: FIGS. 17K and 17L
From the text: FIGS. 17A-L show representative BZQ/S55 ex vivo activities on Fasciola hepatica adults and immature worms.

Fasciola hepatica = assay: Ex vivo treatment of immature and adult F. hepatica (contraction, motility, viability); format: cell-based
Description: Briefly, Male Wistar rats served as the final host to obtain immature and adult stages of F. hepatica after infection with metacercariae from an Italian strain of F. hepatica. Immature flukes were collected from livers 4 weeks post-infection. Adult flukes were collected from bile ducts at 12 weeks post-infection. Worms were kept for 1 h in normal saline to allow clearance of gut contents and then used for experiments. In vitro experiments were performed utilizing a similar procedure as previously reported. Excised worms were treated with different concentrations of praziquantel, triclabendazole, BZQ/S55, S5, and S69, or DMSO as a negative control. The flukes were incubated at 37° C. in a 5% CO2 atmosphere for 72 h, and inhibitor-induced effects on worm viability were assessed using a stereomicroscope at 10× magnification. Worm motility was assessed using the following scores: 3 (normal motility), 2 (reduced motility), 1 (minimal and sporadic movements), and 0 (no movement even upon mechanical stimulation with forceps; considered dead). Representative results from these studies are shown FIGS. 17A-L.

[3] = Toxicity observation in treated mice of the schistosomiasis model; format: in vivo; settings: 50 mg/kg intraperitoneal 1× daily for 3 days
Description: as §1

S. mansoni [4] = assay: Adult schistosome movement assay ex vivo (contraction and paralysis); format: cell-based, Schistosoma mansoni
Description: It was observed that N-amidoquinazolinones contract S. mansoni in a manner similar to the channel activator (and standard of treatment) praziquantel. Adult schistosomes were harvested from the mesenteric vasculature of female Swiss Webster mice previously infected (˜49 days earlier). Harvested schistosomes were washed in RPMI 1640 supplemented with 5% heat inactivated FBS, HEPES, and penicillin-streptomycin. After isolation, worms were incubated overnight in vented petri dishes. Movement assays were performed using male and female worms in six well dishes (˜5 individual worms/3 ml media per well). Schistosomes were treated with a molecule such as compound 4, and video recordings of worm motility were captured using a stereomicroscope coupled to a CCD camera. […] It was also observed that 2-amidoacrylates or 2-amidoacrylamides contract S. mansoni in a manner similar to the channel activator (and standard of treatment) praziquantel. The worm mobility assay performed in FIG. 13 is same as that performed in FIG. 3. Briefly, adult schistosomes were harvested from the mesenteric vasculature of female Swiss Webster mice previously infected (˜49 days earlier). Harvested schistosomes were washed in RPMI 1640 supplemented with 5% heat inactivated FBS, HEPES, and penicillin-streptomycin. After isolation, worms were incubated overnight in vented petri dishes. […]

| Compound | tegument of S. mansoni in electron microscopy image (S. mansoni [1]) | efficacy compared with praziquantel, the standard of treatment (S. mansoni [2]) | worm burden (S. mansoni [2]) | tegument of F. hepatica in electron microscopy image (F. hepatica) | ex vivo activity on Fasciola hepatica adults and immature worms (Fasciola hepatica; immature (4 weeks post-infection) and adult (12 weeks) flukes from rats) | effect on Fasciola hepatica (Fasciola hepatica; treated with BZQ/S55, FIG. 17C) | toxicity [3] | effect on Schistosomes (S. mansoni [4]; treated with BZQ/S55, FIG. 17C) | effect on Fasciola hepatica (Fasciola hepatica; praziquantel 50 μM, FIG. 17B) | effect on Schistosomes (S. mansoni [4]; Praziquantel 500 nM, FIG. 17A) |
| --- | --- | --- | --- | --- | --- | --- | --- | --- | --- | --- |
| O=C(Nn1c(-c2cccc(Cl)c2)nc2ccccc2c1=O)c1ccccc1 [BZQ/S55, N-(2-(3-chlorophenyl)-4-oxoquinazolin-3(4H)-yl)benzamide] | tegument was destroyed | as effective as praziquantel | significant reduction in worm burden | notable tegument damage | active ex vivo | Rapid, sustained contraction and paralysis | no toxicity was noticed | mimics praziquantel on schistosomes; also recorded: Rapid, sustained contraction and paralysis | – | – |
| O=C(C1CCCCC1)N1CC(=O)N2CCc3ccccc3C2C1 (stereo not drawn) [Praziquantel, praziquantel, reference compound] | tegument was destroyed | – | significant reduction in worm burden | – | – | – | – | – | Neither treatment has an effect | rapid, spastic paralysis |
